We go through 15 compounds from US20230158151A1 (NURIX THERAPEUTICS, INC., priority 2021, published 2023).

The term DC50 denotes the concentration at which degradation of the target reaches its halfway point. Low readings indicate degradation at low concentration, high ones degradation only at high concentration. The Dmax is the largest share of the target that was removed.

This assay concerns the target T1, ITK (Homo sapiens, UniProt Q08881).
T1 construct: Compounds provided herein were assayed in vitro with ITK HiBit cell lines; endogenous in cells; host or cells: Molt4 (ATCC CRL-1552 [sic]), monoclonal clone 1C10
T1 sequence (Q08881 1-620): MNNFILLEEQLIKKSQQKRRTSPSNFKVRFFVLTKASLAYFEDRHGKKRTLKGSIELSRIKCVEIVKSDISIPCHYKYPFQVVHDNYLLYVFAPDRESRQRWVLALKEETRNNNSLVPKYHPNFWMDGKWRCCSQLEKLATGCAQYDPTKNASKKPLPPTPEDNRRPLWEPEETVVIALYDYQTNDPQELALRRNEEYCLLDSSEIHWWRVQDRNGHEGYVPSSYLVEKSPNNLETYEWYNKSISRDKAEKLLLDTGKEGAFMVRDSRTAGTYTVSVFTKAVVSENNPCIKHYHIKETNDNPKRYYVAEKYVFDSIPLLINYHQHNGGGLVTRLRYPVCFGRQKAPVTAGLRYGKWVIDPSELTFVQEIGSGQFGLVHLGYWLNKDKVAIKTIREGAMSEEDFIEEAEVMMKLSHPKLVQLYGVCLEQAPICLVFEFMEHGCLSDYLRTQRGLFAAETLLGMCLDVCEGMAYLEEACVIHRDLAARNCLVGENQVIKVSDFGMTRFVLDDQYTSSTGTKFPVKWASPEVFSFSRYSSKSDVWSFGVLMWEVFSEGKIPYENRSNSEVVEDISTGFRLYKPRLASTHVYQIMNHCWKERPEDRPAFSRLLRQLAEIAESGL
The experiment in a line: ITK Degradation HiBiT Assay. Particulars: C-terminal HiBiT-tagged Molt4 cells, 4 hrs incubation; for Dmax: MOLT-4, read-out: HiBiT DMax (%). The assay is classed as cell-based. Here is the method:
Compounds provided herein were assayed in vitro with ITK HiBit cell lines. Compound dilution series (11-point, 5 fold dilutions in DMSO, columns 2-12 with replicate in rows A/B, C/D, E/F, G, H at 2000× the final required concentrations were prepared in 96 well plate (Falcon, cat. no. 353077). Column 1, rows A-H were control DMSO. The 2000× solutions ranged from 2 mM to 1.024 nM (final assay concentration range 1 μM to […]). The 2000× solutions were added to cells in […], for a final DMSO concentration of 0.5% and final assay compound concentration of 1×. For the cells, C-terminal HiBiT-tagged Molt4 cells (ATCC CRL-1552, monoclonal cell line clone 1C10) were plated at 1×10^6 cells/mL, 100 μL/well ([…]) in complete RPMI (10% FBS, 1% L-glutamine). The cells were incubated with compound 32 and compound 30 for 4 hrs at 32° C./6% CO2.
Following incubation, 100 μL of complete Nano-Glo HiBiT Lytic Detection Reagent (Nano-Glo HiBiT Lytic Buffer with 1:50 Nano-Glo HiBiT Lytic Substrate and 1:100 LgBiT Protein; Promega cat. no. N3O40) was added. Cells were further incubated for 10 min at room temperature (RT). Luminescence units (LU) were read on an EnVision plate reader (Perkin Elmer, 0.1 sec per well). Percent ITK remaining per sample was calculated as follows: […]
Using Graphpad Prism, % ITK remaining values were plotted as a function of compound concentration. To determine DC50 and Dmax values, resulting curves were fit to the Prism curve-fitting equation “log(inhibitor) vs response−Variable slope (four parameters)” (reported best fit value IC50 used as DC50). ITK was measured with antibody-based MSD (Meso-Scale Discovery) assays shown below.
On the technique in general: HiBiT is a short tag that completes a luciferase, so light tracks the accessible tagged protein.

Each structure is given as a SMILES string.

For `CN(C(=O)c1ccc2cc(-c3n[nH]c4c3CCC(C)(C)C4)[nH]c2c1)C1CCN(CC2CCN(c3ccc(C4CCC(=O)NC4=O)cn3)CC2)CC1` (stereo not drawn) [Compound 18, 2-(6,6-dimethyl-4,5,6,7-tetrahydro-1H-indazol-3-yl)-N-(1-((1-(5-(2,6-dioxopiperidin-3-yl)pyridin-2-yl)piperidin-4-yl)methyl)piperidin-4-yl)-N-methyl-1H-indole-6-carboxamide], it took 0.68 nM to reach half-maximal degradation (DC50) and the Dmax was determined as 87%.

In the case of `C[C@@]12Cc3[nH]nc(C(=O)Nc4cnn([C@H](c5ccccc5)C5CN(C(=O)C6CN(c7ccc(C8CCC(=O)NC8=O)cn7)C6)C5)c4)c3C[C@@H]1C2(F)F` (stereo partly drawn) [Compound 21, (4aS,5aR)—N-(1-((1S)-(1-(1-(5-(2,6-dioxopiperidin-3-yl)pyridin-2-yl)azetidine-3-carbonyl)azetidin-3-yl)(phenyl)methyl)-1H-pyrazol-4-yl)-5,5-difluoro-5a-methyl-1,4,4a,5,5a,6-hexahydrocyclopropa[f]indazole-3-carboxamide], the DC50 is below 0.01 nM and the Dmax worked out at 83%.

As to `C[C@@]12Cc3[nH]nc(-c4cc5ccc(C(=O)N6CCN(CC7CCN(c8ccc(C9CCC(=O)NC9=O)cn8)CC7)CC6)cc5[nH]4)c3C[C@@H]1C2(F)F` (stereo partly drawn) [Compound 20, 3-(6-(4-((4-(2-((4aS,5aR)-5,5-difluoro-5a-methyl-1,4,4a,5,5a,6-hexahydrocyclopropa[f]indazol-3-yl)-1H-indole-6-carbonyl)piperazin-1-yl)methyl)piperidin-1-yl)pyridin-3-yl)piperidine-2,6-dione], the DC50 was below 0.001 nM and the maximal degradation (Dmax) worked out at 83%.

On to `C[C@@]12Cc3[nH]nc(C(=O)Nc4cnn(C5CN(C(=O)C6CN(c7ccc(C8CCC(=O)NC8=O)cn7)C6)C5)c4)c3C[C@@H]1C2(F)F` (stereo partly drawn) [Compound 14, (4aS,5aR)—N-(1-(1-(1-(5-(2,6-dioxopiperidin-3-yl)pyridin-2-yl)azetidine-3-carbonyl)azetidin-3-yl)-1H-pyrazol-4-yl)-5,5-difluoro-5a-methyl-1,4,4a,5,5a,6-hexahydrocyclopropa[f]indazole-3-carboxamide], for which the Dmax is 78%.

With `C[C@@]12Cc3[nH]nc(-c4cc5ccc(N6CCC7(CCN(C(=O)C8CCN(c9ccc(C%10CCC(=O)NC%10=O)cn9)CC8)CC7)C6=O)cc5[nH]4)c3C[C@@H]1C2(F)F` (stereo partly drawn) [Compound 16, 3-(6-(4-(2-(2-((4aS,5aR)-5,5-difluoro-5a-methyl-1,4,4a,5,5a,6-hexahydrocyclopropa[f]indazol-3-yl)-1H-indol-6-yl)-1-oxo-2,8-diazaspiro[4.5]decane-8-carbonyl)piperidin-1-yl)pyridin-3-yl)piperidine-2,6-dione], the Dmax came out at 90%.

As to `CC1(C)CCc2c(-c3cc4ccc(C(=O)N5CCN(CCCCc6ccc(C7CCC(=O)NC7=O)cc6)CC5)cc4[nH]3)n[nH]c2C1` (stereo not drawn) [Compound 40, 3-(4-(4-(4-(2-(6,6-dimethyl-4,5,6,7-tetrahydro-1H-indazol-3-yl)-1H-indole-6-carbonyl)piperazin-1-yl)butyl)phenyl)piperidine-2,6-dione], the DC50 stood at 15 nM and the Dmax was determined as 68%.

Consider `CC1(C)CCc2c(-c3cc4ccc(C(=O)N5CCC(CN6CCN(c7cccc(C8CCC(=O)NC8=O)n7)CC6)CC5)cc4[nH]3)n[nH]c2C1` (stereo not drawn) [Compound 41], for which the Dmax is 27%.

`C[C@@]12Cc3[nH]nc(C(=O)Nc4cnn(C5CN(C(=O)C6CCN(c7ccc(C8CCC(=O)NC8=O)cn7)CC6)C5)c4)c3C[C@@H]1C2(F)F` (stereo partly drawn) [Compound 13, (4aS,5aR)—N-(1-(1-(1-(5-(2,6-dioxopiperidin-3-yl)pyridin-2-yl)piperidine-4-carbonyl)azetidin-3-yl)-1H-pyrazol-4-yl)-5,5-difluoro-5a-methyl-1,4,4a,5,5a,6-hexahydrocyclopropa[f]indazole-3-carboxamide]: the DC50 is 1.3 nM and the Dmax came out at 91%.

As for `CC1(C)CCc2c(-c3cc4ccc(C(=O)N5CCC(CC6CCN(c7ccc(C8CCC(=O)NC8=O)cn7)CC6)CC5)cc4[nH]3)n[nH]c2C1` (stereo not drawn) [Compound 19, 3-(6-(4-((1-(2-(6,6-dimethyl-4,5,6,7-tetrahydro-1H-indazol-3-yl)-1H-indole-6-carbonyl)piperidin-4-yl)methyl)piperidin-1-yl)pyridin-3-yl)piperidine-2,6-dione], the maximal degradation (Dmax) stood at 73%.

Turning to `CC1(C)CCc2c(-c3cc4ccc(C(=O)N5CCN(CCC#Cc6ccc(C7CCC(=O)NC7=O)cc6)CC5)cc4[nH]3)n[nH]c2C1` (stereo not drawn) [Compound 34, 3-(4-(4-(4-(2-(6,6-dimethyl-4,5,6,7-tetrahydro-1H-indazol-3-yl)-1H-indole-6-carbonyl)piperazin-1-yl)but-1-yn-1-yl)phenyl)piperidine-2,6-dione], half-maximal degradation (DC50) was put at 2.6 nM and the Dmax stood at 60%.

On to `CN(C(=O)C1CCN(C(=O)c2ccc3cc(-c4n[nH]c5c4CCC(C)(C)C5)[nH]c3c2)CC1)C1CCN(c2ccc(C3CCC(=O)NC3=O)cn2)CC1` (stereo not drawn) [Compound 33, 1-(2-(6,6-dimethyl-4,5,6,7-tetrahydro-1H-indazol-3-yl)-1H-indole-6-carbonyl)-N-(1-(5-(2,6-dioxopiperidin-3-yl)pyridin-2-yl)piperidin-4-yl)-N-methylpiperidine-4-carboxamide], for which the DC50 is 0.04 nM and the Dmax was 80%.

`CN(C(=O)C1CCN(CC2CCN(c3ccc(C4CCC(=O)NC4=O)cn3)CC2)CC1)c1ccc2cc(-c3n[nH]c4c3C[C@@H]3C(F)(F)[C@]3(C)C4)[nH]c2c1` (stereo partly drawn) [Compound 5, N-(2-((4aS,5aR)-5,5-difluoro-5a-methyl-1,4,4a,5,5a,6-hexahydrocyclopropa[f]indazol-3-yl)-1H-indol-6-yl)-1-((1-(5-(2,6-dioxopiperidin-3-yl)pyridin-2-yl)piperidin-4-yl)methyl)-N-methylpiperidine-4-carboxamide]: the greatest degradation seen (Dmax) worked out at 85%.

In the case of `CN(C(=O)CCC1CCN(c2ccc(C3CCC(=O)NC3=O)cn2)C1)c1ccc2cc(-c3n[nH]c4c3C[C@@H]3C(F)(F)[C@]3(C)C4)[nH]c2c1` (stereo partly drawn) [Compound 25, N-(2-((4aS,5aR)-5,5-difluoro-5a-methyl-1,4,4a,5,5a,6-hexahydrocyclopropa[f]indazol-3-yl)-1H-indol-6-yl)-3-(1-(5-(2,6-dioxopiperidin-3-yl)pyridin-2-yl)pyrrolidin-3-yl)-N-methylpropanamide], the Dmax was 48%.

Consider `C[C@@]12Cc3[nH]nc(-c4cc5ccc(N6CCC7(CCN(CCC8CCN(c9ccc(C%10CCC(=O)NC%10=O)cn9)CC8)CC7)C6=O)cc5[nH]4)c3C[C@@H]1C2(F)F` (stereo partly drawn) [Compound 17, 3-(6-(4-(2-(2-(2-((4aS,5aR)-5,5-difluoro-5a-methyl-1,4,4a,5,5a,6-hexahydrocyclopropa[f]indazol-3-yl)-1H-indol-6-yl)-1-oxo-2,8-diazaspiro[4.5]decan-8-yl)ethyl)piperidin-1-yl)pyridin-3-yl)piperidine-2,6-dione], for which the DC50 was below 0.01 nM and the Dmax was 89%.

Turning to `C[C@@]12Cc3[nH]nc(C(=O)Nc4cnn(C5CN(CC6CCN(c7ccc(C8CCC(=O)NC8=O)cn7)CC6)C5)c4)c3C[C@@H]1C2(F)F` (stereo partly drawn) [Compound 12, (4aS,5aR)—N-(1-(1-((1-(5-(2,6-dioxopiperidin-3-yl)pyridin-2-yl)piperidin-4-yl)methyl)azetidin-3-yl)-1H-pyrazol-4-yl)-5,5-difluoro-5a-methyl-1,4,4a,5,5a,6-hexahydrocyclopropa[f]indazole-3-carboxamide], half-maximal degradation (DC50) was put at 0.25 nM and the Dmax came to 85%.
